Activity calls are given as the source filed them. The rule behind the calls is not given here.
Tests used:
CCRF-CEM = test: cells; settings: Homo sapiens, 72 h
Description: Antiproliferative activity against human CEM cells assessed as growth inhibition after 72 hrs by MTT assay

HeLa = test: cells; settings: Homo sapiens, 72 h
Description: Antiproliferative activity against human HeLa cells assessed as growth inhibition after 72 hrs by MTT assay

L1210 = test: cells; settings: Mus musculus, L1210, 72 h
Description: Antiproliferative activity against mouse L1210 cells assessed as growth inhibition after 72 hrs by MTT assay

HMEC-1 = test: Cytotoxicity against human HMEC-1 cells assessed as growth inhibition after 72 hrs by MTT assay; type: cell-based; settings: HMEC-1, 72 h
DNA = test: Binding affinity to double strand DNA (unknown origin) assessed as stabilization of DNA by measuring change in melting temperature at 1 uM by FRET analysis; type: nucleic-acid assay; settings: Homo sapiens
Homo sapiens [1] = species: Homo sapiens; test: Binding affinity to HIF1A DNA (unknown origin) assessed as stabilization of DNA by measuring change in melting temperature at 1 uM by FRET analysis
Homo sapiens [2] = species: Homo sapiens; test: Binding affinity to human TeloC DNA assessed as stabilization of DNA by measuring change in melting temperature at 1 uM by FRET analysis
Homo sapiens [3] = species: Homo sapiens; test: Binding affinity to ILPR DNA (unknown origin) assessed as stabilization of DNA by measuring change in melting temperature at 1 uM by FRET analysis
[4] = Binding affinity to NASG DNA (unknown origin) assessed as stabilization of DNA by measuring change in melting temperature at 1 uM by FRET analysis
Quadruplex DNA = test: Binding affinity to human G-quadruplex TeloG DNA assessed as stabilization of DNA by measuring change in melting temperature at 1 uM by FRET analysis; type: nucleic-acid assay
Homo sapiens [5] = species: Homo sapiens; test: Binding affinity to DAP DNA (unknown origin) assessed as stabilization of DNA by measuring change in melting temperature at 1 uM by FRET analysis
Homo sapiens [6] = species: Homo sapiens; test: Binding affinity to cMYC DNA (unknown origin) assessed as stabilization of DNA by measuring change in melting temperature at 1 uM by FRET analysis

Row | IC50 (CCRF-CEM) [nM] | IC50 (HeLa) [nM] | IC50 (L1210) [nM] | ΔTm (DNA) [°C] | ΔTm (Homo sapiens [1]) [°C] | Activity (Homo sapiens [2]) | ΔTm (Homo sapiens [3]) [°C] | ΔTm [4] [°C] | ΔTm (Quadruplex DNA) [°C] | Activity (Homo sapiens [5]) | ΔTm (Homo sapiens [6]) [°C] | Compound | IC50 (HMEC-1) [nM]
1 | 2100 | 1600 | 200 | – | – | – | – | – | – | – | – | Cc1cc(NCCN)c2c3c4c(cc(O)c13)C(C)(C)C(=O)c1c(O)cc(O)c(c1-4)C2=O | 1200
2 | 800 | 800 | 800 | 6 | 10 | inactive | 17 | 4 | 5 | inactive | 25 | COc1cc2c3c4c(c(NCCN)cc(C)c14)C(=O)c1c(O)cc(O)c(c1-3)C(=O)C2(C)C | 700
3 | – | – | – | – | – | – | – | – | – | – | – | COc1cccc2c1C(=O)c1c(O)c3c(c(O)c1C2=O)C[C@@](O)(C(=O)CO)C[C@@H]3O[C@H]1C[C@H](N)[C@H](O)[C@H](C)O1 [DOXORUBICIN] | 100

From ChEMBL document CHEMBL4825679, “Water-Soluble Heliomycin Derivatives to Target i-Motif DNA” (J Nat Prod, 2021)
